Measurements from patent US20250032568A1, “TRADITIONAL CHINESE MEDICINE COMPOSITION AND TRADITIONAL CHINESE MEDICINE DECOCTION FOR TREATING GASTROESOPHAGEAL REFLUX DISEASE (GERD), AND PREPARATION METHOD AND USE THEREOF” (AFFILIATED HOSPITAL OF JIANGXI UNIVERSITY OF TRADITIONAL …, priority 2023, published 2025).

Experiments:
Assay type in all cases: in vivo, human
[1] = test system: gastroesophageal reflux disease (GERD); test: TCM symptom scoring in GERD patients; conditions: 40 per group, mean ± S
Procedure: (§1) In this example, 80 patients who were diagnosed with GERD in the inpatient and outpatient departments of the Gastroenterology Department of the Affiliated Hospital of Jiangxi University of Traditional Chinese Medicine from 2022.6.1 to 2023.2-28 and met this standard were collected, with a total effective rate of 87.5%.
(§2) Treatment group: 100 mL Bid of the traditional Chinese medicine decoction prepared in Example 1
(§3) Control group: 20 mg Bid of an esomeprazole magnesium soluble capsule
3) TCM symptom scoring: referring to the “Guiding Principles for Clinical Research of New Traditional Chinese Medicines” for scoring. The scoring criteria are as follows: primary symptoms including acid reflux, heartburn, belching and reflux; the secondary symptoms including retrosternal burning pain, throat discomfort, bitter mouth, nausea. There are 4 levels according to none, mild, moderate, and severe. The primary symptoms are recorded as 0, 2, 4 and 6 points, respectively, while the secondary symptoms are recorded as 0, 1, 2 and 3 points, respectively.

[2] = test system: gastroesophageal reflux disease (GERD); test: Reflux Disease Questionnaire (RDQ) score in GERD patients; conditions: 40 per group, mean ± S
Procedure: as §1, §2, §3
1) Reflux Disease Questionnaire (RDQ)
RDQ is currently the most recognized and widely used diagnostic scale for GERD in the world.
The maximum score for frequency and symptom severity is 40 points, and the GERD is diagnosed when the RDQ score is >12 points.
RDQ scoring criteria: a. Scoring based on the frequency of symptom onset: based on the weekly frequency of four symptoms: heartburn, regurgitation, non-cardiac chest pain, and acid reflux, “never”, “1 week <1 d”, “1 d per 1 week”, “2-3 d per 1 week”, “4-5 d per 1 week”, and “almost every day” were scored as 0, 1, 2, 3, 4, and 5 points, respectively, with a maximum of 20 points. b. […]

[3] = test system: gastroesophageal reflux disease (GERD); test: Clinical efficacy (total effective rate) in GERD patients; conditions: 40 per group; for Efficacy (total effective rate): (Recovery+Significant effect+Effective)/total number of cases
Procedure: as §1, §2, §3

[4] = decoction 100 mL Bid or esomeprazole capsule 20 mg Bid, after the test

`COc1ccc2[n-]c([S+]([O-])Cc3ncc(C)c(OC)c3C)nc2c1.COc1ccc2[n-]c([S+]([O-])Cc3ncc(C)c(OC)c3C)nc2c1.[Mg+2]` (stereo not drawn) [esomeprazole magnesium soluble capsule, esomeprazole magnesium] was tested, and the “TCM symptom score after treatment” value ([1]; after treatment) was 8.43 ± 4.29^[4], the “TCM symptom score before treatment” value ([1]; baseline) was 17.85 ± 4.07^[2] and the “RDQ score after treatment” value [2] was 13.73 ± 4.59^[4]. For the same compound, the “Efficacy (total effective rate)” value ([3]; listed as Control) was 82.50%, the “Efficacy (total effective rate)” value ([3]; listed as control group) was 82.5% and the “Effective (number of patients)” value [3, 4] was 23. The “Invalid (number of patients)” value [3, 4] was 7, the “Recovery (number of patients)” value [3, 4] was 4 and the “Significant effect (number of patients)” value [3, 4] was 6.
